Laboratory results as given in patent US20110054193A1, “STATIN PRODUCTION” (priority 2008, published 2011).

Experiments:
[1] = tested on: Penicillium chrysogenum ΔhdfAΔ Pc16g05060; experiment: Compactin sensitivity of Penicillium chrysogenum strains, growth in liquid media; assay type: cell-based; conditions: mutant for Pc16g05060 (SEQ ID NO 9); liquid media with different amounts of compactin; 2 days of growth at 25 C
Procedure: (§1) Fungal growth was performed in a mineral medium, containing (g/L): glucose (5); lactose (35); urea (4.5); (NH4)2SO4 (1.1); Na2SO4 (2.9); KH2PO4 (5.2); K2HPO4 (4.8) and 10 mL/L of a trace element solution containing (in g/l): citric acid (150); FeSO4.7H2O (15); MgSO4.7H2O (150); H3BO3 (0.0075); CuSO4.5H2O (0.24); CoSO4.7H2O (0.375); ZnSO4.7H2O (5); MnSO4.H2O (2.28); CaCl2.2H2O (0.99); pH before sterilization 6.5. Oxoid agar was added at 15 g/l to solidify the medium.
(§2) Compactin was maintained as a stock solution at 20 g/L in ethanol at −20 C.
The gene Pc16g05060 was identified as a HMGR encoding gene. In order to prevent the transcription of this gene a selection marker gene was inserted between the promoter and the open reading frame (ORF). To this end the promoter and the ORF were PCR amplified using the oligonucleotides SEQ ID NO 13 plus 14 and SEQ ID NO 15 plus 16, respectively (see FIG. 1). Phusion Hot-Start Polymerase (Finnzymes) was used to amplify the fragments. The fragments obtained are 1539 and 1514 base pairs (bp) in length (SEQ ID NO 35 and SEQ ID NO 36) and contain a 14 bp tail suitable for the so-called STABY cloning method (Eurogentec).
Spores of the Penicillium chrysogenum mutants for both HMGR encoding genes, Pc18g05230 (SEQ ID NO 1) and Pc16g05060 (SEQ ID NO 9), were inoculated in liquid media with different amounts of compactin.

[2] = tested on: Penicillium chrysogenum ΔhdfAΔ Pc18g05230; experiment: as above; assay type: cell-based; conditions: mutant for Pc18g05230 (SEQ ID NO 1); liquid media with different amounts of compactin; 2 days of growth at 25 C
Procedure: as §1, §2
The gene Pc18g05230 was identified as a HMGR encoding gene. In order to prevent the transcription of this gene a selection marker gene was inserted between the promoter and the open reading frame (ORF). To this end the promoter and the ORF were PCR amplified using the oligonucleotides SEQ ID NO 5 plus 6 and SEQ ID NO 7 plus 8, respectively (see FIG. 1). Phusion Hot-Start Polymerase (Finnzymes) was used to amplify the fragments. The fragments obtained are 1539 and 2514 base pairs (bp) in length (SEQ ID NO 31 and SEQ ID NO 32) and contain a 14 bp tail suitable for the so-called STABY cloning method (Eurogentec). From the standard STABY vector, pSTC1.3, two derivatives were obtained. One, pSTamdSL (SEQ ID NO 39), was used for cloning the PCR amplified promoter (SEQ ID NO 31). […]

## CC[C@H](C)C(=O)O[C@H]1CCC=C2C=C[C@H](C)[C@H](CC[C@@H]3C[C@@H](O)CC(=O)O3)[C@H]21 [Compactin, compactin]
[1]
  compactin sensitivity of the mutant, in words: increased compactin sensitivity
[2]
  compactin sensitivity of the mutant, in words: increased compactin sensitivity
